Measurements reported in ChEMBL document CHEMBL4334513, “Discovery of a Potent, Selective, and Orally Available MTHFD2 Inhibitor (DS18561882) with in Vivo Antitumor Activity” (J Med Chem, 2019).
≈ marks a conversion by molar mass, not a printed value.

Assays:
[1] = Antiproliferative activity against human MDA-MB-231-luc-D3H2LN cells assessed as inhibition of growth after 3 days by CellTiter Glo assay; format: functional; conditions: 72 h
[2] = Half life in BALBc mouse at 10 mg/kg, po measured for 24 hrs by LC-MS/MS analysis; format: ADME, organism-based; conditions: in vivo
[3] = Toxicity in BALB/cAJcl nu/nu mouse xenografted with human MDA-MB-231-Luc cells assessed as body weight loss at 30 to 300 mg/kg, po administered bid for 11 days and measured every 1 to 2 days; format: organism-based; conditions: in vivo
[4] = Metabolic stability in mouse liver microsomes assessed as remaining parent compound at 1 uM after 0.5 hrs; format: ADME, Microsome; conditions: read-out: Stability
[5] = Free plasma concentration in BALBc mouse at 10 to 300 mg/kg, po measured after 24 hrs by LC-MS/MS analysis; format: ADME, organism-based; conditions: in vivo
[6] = Half life in BALBc mouse at 30 mg/kg, po measured for 24 hrs by LC-MS/MS analysis; format: ADME, organism-based; conditions: in vivo
[7] = Cmax in BALBc mouse at 100 mg/kg, po measured for 24 hrs by LC-MS/MS analysis; format: ADME, organism-based; design: dose 100 mg/kg, route oral; conditions: in vivo
[8] = AUC in BALBc mouse at 300 mg/kg, po measured for 24 hrs by LC-MS/MS analysis; format: ADME, organism-based; conditions: in vivo
[9] = AUC in BALBc mouse at 10 mg/kg, po measured for 24 hrs by LC-MS/MS analysis; format: ADME, organism-based; conditions: in vivo
[10] = Solubility of compound in pH 1.2; format: physicochemical; conditions: buffer
[11] = Half life in BALBc mouse at 300 mg/kg, po measured for 24 hrs by LC-MS/MS analysis; format: ADME, organism-based; conditions: in vivo
[12] = Cmax in BALBc mouse at 10 mg/kg, po measured for 24 hrs by LC-MS/MS analysis; format: ADME, organism-based; design: dose 10 mg/kg, route oral; conditions: in vivo
[13] = Solubility of compound in pH 6.8; format: physicochemical; conditions: buffer
[14] = Effective permeability of compound at pH 7.4 by PAMPA; format: ADME; conditions: read-out: Peff
[15] = Cmax in BALBc mouse at 30 mg/kg, po measured for 24 hrs by LC-MS/MS analysis; format: ADME, organism-based; design: dose 30 mg/kg, route oral; conditions: in vivo
[16] = Lipophilicity, logD of compound; format: physicochemical; conditions: octanol/water
[17] = Antitumor activity against human MDA-MB-231-Luc cells xenografted in BALB/cAJcl nu/nu mouse assessed as tumour growth inhibition at 300 mg/kg, po administered bid for 11 days and measured every 2 to 3 days relative to control; format: functional; conditions: read-out: TGI
[18] = Fraction unbound in mouse plasma; format: ADME, cell-free
[19] = Cmax in BALBc mouse at 300 mg/kg, po measured for 24 hrs by LC-MS/MS analysis; format: ADME, organism-based; design: dose 300 mg/kg, route oral; conditions: in vivo
[20] = Effective permeability of compound at pH 5 by PAMPA; format: ADME; conditions: read-out: Peff
[21] = Lipophilicity, logP of compound; format: physicochemical; conditions: octanol/water
[22] = AUC in BALBc mouse at 100 mg/kg, po measured for 24 hrs by LC-MS/MS analysis; format: ADME, organism-based; conditions: in vivo
[23] = Half life in BALBc mouse at 100 mg/kg, po measured for 24 hrs by LC-MS/MS analysis; format: ADME, organism-based; conditions: in vivo
[24] = AUC in BALBc mouse at 30 mg/kg, po measured for 24 hrs by LC-MS/MS analysis; format: ADME, organism-based; conditions: in vivo
[25] = Toxicity in BALB/cAJcl nu/nu mouse xenografted with human MDA-MB-231-Luc cells assessed as body weight loss at 300 mg/kg, po administered bid for 11 days and measured every 1 to 2 days; format: organism-based; conditions: in vivo
[26] = Dissociation constant, acidic pKa of compound; format: physicochemical

Description for Homo sapiens: Antitumor activity against human MDA-MB-231-Luc cells xenografted in orally dosed BALB/cAJcl nu/nu mouse assessed as tumour growth inhibition administered bid for 11 days and measured every 2 to 3 days relative to control

| Compound | GI50 [1] [µM] | half-life [2] [h] | remaining at 0.5 h, 1 µM [4] [%] | Cp(f) [5] [ng/mL] | half-life [6] [h] | Cmax [7] [ng/mL] | AUC at 24 h [8] [µg·h/mL] | AUC at 24 h [9] [µg·h/mL] | solubility [10] [µg/mL] | half-life [11] [h] | Cmax [12] [ng/mL] | solubility [13] [µg/mL] | Papp [14] [×10⁻⁶ cm/s] | Cmax [15] [ng/mL] | logD [16] | inhibition in vivo at 300 mg/kg [17] [%] | fraction unbound [18] | Cmax [19] [ng/mL] | Papp [20] [×10⁻⁶ cm/s] | logP [21] | further results |
| --- | --- | --- | --- | --- | --- | --- | --- | --- | --- | --- | --- | --- | --- | --- | --- | --- | --- | --- | --- | --- | --- |
| Cc1c(N2CCN(C)[C@@H](C)C2)ccc2c3c(c(=O)oc12)CN(C(=O)c1ccc(NS(C)(=O)=O)c(OC(F)(F)F)c1)CC3 | 0.34 | 2.21 | 66 | 0 | 2.16 | 90100 | 1630 | 64.4 | 1100 (≈ 1810 µM) | 4 | 11400 | 630 (≈ 1040 µM) | > 50 | 56500 | 1.9 | 67 | 0.031 | 143000 | 17.2 | 2.1 | Activity [3]: Non-Toxic; TGI (Homo sapiens): Dose-dependent effect; AUC at 24 h [22]: 726 µg·h/mL; half-life [23]: 2.32 h; AUC at 24 h [24]: 264 µg·h/mL |
| Cc1c(N2CCN(C)CC2)ccc2c3c(c(=O)oc12)CN(C(=O)c1ccc(NS(C)(=O)=O)c(Cl)c1)CC3 | 0.94 | 2.73 | 91 | 0 | 3.35 | 37900 | 929 | 25.3 | 240 (≈ 440 µM) | 2.32 | 3660 | 120 (≈ 220 µM) | 31.1 | 12700 | 1.3 | 43 | 0.153 | 82600 | 7.2 | 1.8 | Activity [25]: Non-Toxic; AUC at 24 h [22]: 306 µg·h/mL; pKa [26]: 6.8; half-life [23]: 3.51 h; AUC at 24 h [24]: 79.2 µg·h/mL |
